Measured values reported in paper PMC9264368, “Structural Analysis and Development of Notum Fragment Screening Hits” (ACS Chemical Neuroscience, 2022).
Where two headings read alike, the source gives them in different places.

Columns and labels:
Notum [1] = target: T1, Notum (Homo sapiens, UniProt Q6P988, C330S); test: biochemical
T1 sequence (Q6P988 81-451 C330S): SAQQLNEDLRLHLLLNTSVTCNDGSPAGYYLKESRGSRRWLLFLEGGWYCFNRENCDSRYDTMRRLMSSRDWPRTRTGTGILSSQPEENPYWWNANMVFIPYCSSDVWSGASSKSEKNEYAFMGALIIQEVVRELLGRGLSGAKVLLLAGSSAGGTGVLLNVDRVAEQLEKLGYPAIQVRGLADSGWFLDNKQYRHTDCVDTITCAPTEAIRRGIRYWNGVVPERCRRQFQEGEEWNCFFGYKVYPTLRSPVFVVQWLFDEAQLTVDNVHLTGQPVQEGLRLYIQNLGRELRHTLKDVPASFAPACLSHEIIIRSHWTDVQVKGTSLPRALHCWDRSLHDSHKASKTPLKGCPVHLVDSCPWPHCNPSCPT

Notum [2] = target: T1, Notum; settings: for IC50: read-out: Notum IC50, Table S1, mean ± s.d. of N = 2-4 unless stated; for LE (ligand efficiency): LE = 1.4(−pIC50)/HAC; for LLE (lipophilic ligand efficiency): LLE = pIC50 – clogP; for LE / LLE: supplementary CSV; for fold improvement in Notum inhibition: versus parent: 7 vs 26, 16a vs 16, 15a vs 15, 7c vs 7b
[3] = Notum IC50, OPTS substrate, 10-point curves 30 nM to 1 mM, mean ± s.d. of N = 2–4 unless stated, Table 1 and figures
[4] = IC50 (µM), supplementary CSV, Notum IC50 values for 1–58
[5] = pIC50, Table 1, Notum OPTS assay

Row | SMILES | IC50 (Notum [1]; [3]) [µM] | LE (ligand efficiency) (Notum [2]) | LLE (lipophilic ligand efficiency) (Notum [2]) | LE (Notum [2]) | LLE (Notum [2]) | further results
1 | FC(F)(F)c1cc(CNCc2ccc3c(c2)OCO3)ccc1Cl [28a, 1-(Benzo[d][1,3]dioxol-5-yl)-N-(4-chloro-3-(trifluoromethyl)benzyl)methanamine] | 16 ± 1.5 | – | – | – | – | –
2 | N#CNc1nc2cc(Br)ccc2[nH]1 [15i] | – | – | – | – | – | IC50 (Notum [2]): 15 ± 3.7 µM
3 | Nc1ccc(NCc2cccnc2)c(C(=O)O)c1 [compound 18] | 63 ± 12 | 0.32 | 3.0 | 0.32 | 3 | –
4 | CC1CCN(Cc2c[nH]c3ccccc23)CC1 [compound 38] | 120 ± 49 | 0.32 | 0.2 | 0.32 | 0.2 | –
5 | c1cnc(Oc2ccc(-c3cc[nH]n3)cc2)nc1 [compound 5, 2-[4-(1H-Pyrazol-3-yl)phenoxy]pyrimidine] | 480 ± 82 | 0.25 | 1.3 | 0.25 | 1.3 | –
6 | N#CNc1nc2c(Br)cccc2[nH]1 [15d] | – | – | – | – | – | IC50 (Notum [2]): 2.3 ± 0.54 µM
7 | CCC(=O)Nc1ccc(C)cc1O [compound 42] | > 1000 | – | – | – | – | IC50 (Notum [1]; [4]): > 1000 µM
8 | CC(=O)Nc1ccc2nsnc2c1 [compound 58] | 390 ± 53 | 0.38 | 1.4 | 0.38 | 1.4 | –
9 | C[C@@H](Oc1ccc(-c2ccccc2)cc1)C(=O)O [compound 55] | 200 ± 76 | 0.29 | 0.2 | 0.29 | 0.2 | –
10 | COc1cccc2[nH]c(NC#N)nc12 [15f] | – | – | – | – | – | IC50 (Notum [2]): 14 ± 1.3 µM
11 | Cn1c(NC#N)nc2ccccc21 [15b] | – | – | – | – | – | IC50 (Notum [2]): 5 ± 0.77 µM
12 | CC(=O)Nc1ccc(Nc2ccccc2)cc1 [compound 25, N-(4-Anilinophenyl)acetamide] | 86 ± 21 | 0.36 | 1.6 | 0.36 | 1.6 | –
13 | N#Cc1ccc(Cn2cnc3ccccc32)cc1 [compound 12, 4-(Benzimidazol-1-ylmethyl)benzonitrile] | 570 ± 20 | 0.25 | 0.7 | 0.25 | 0.7 | –
14 | Nc1ccc(S(=O)(=O)Nc2ccccn2)cc1 [compound 11, 4-Amino-N-(2-pyridin-2-yl)benzenesulfonamide] | > 1000 | – | – | – | – | IC50 (Notum [1]; [4]): > 1000 µM
15 | Cc1ccc(C)c(OC(=O)c2ccncc2)c1 [compound 50] | 36 ± 2.7 | 0.37 | 1.1 | 0.37 | 1.1 | –
16 | COCC(=O)Nc1nc(-c2ccccc2)cs1 [compound 35] | 120 ± 24 | 0.32 | 1.6 | 0.32 | 1.6 | –
17 | N#CNc1nc2ccccc2[nH]1 [compound 15] | 17 ± 0.9 | 0.56 | 3.5 | – | 3.5 | –
18 | c1cc2c(cc1CNC[C@H]1CCCO1)OCO2 [compound 32] | ~1000 | 0.25 | 0.9 | 0.25 | 0.9 | IC50 (Notum [1]; [4]): 1000 µM
19 | CC(=O)Nc1ccc(OCC(=O)O)cc1 [compound 27, (4-Acetamidophenoxy)acetic acid] | > 1000 | – | – | – | – | IC50 (Notum [1]; [4]): > 1000 µM
20 | Cc1ccc(CN(C)Cc2ccccc2)o1 [compound 21] | 930 ± 69 | 0.26 | -0.4 | 0.26 | -0.4 | –
21 | C[C@H]1CCCCN1C(=O)N1CCOCC1 [compound 19] | 750 ± 17 | 0.29 | 1.2 | 0.29 | 1.2 | –
22 | O=C1CN(C(=O)COc2ccccc2)CCN1 [compound 56] | > 100 | – | – | – | – | IC50 (Notum [1]; [4]): > 100 µM
23 | COc1cc(-c2ccccc2)nc(N)n1 [compound 46] | 380 ± 130 | 0.32 | 0.7 | 0.32 | 0.7 | –
24 | O=C(NCCc1ccc(O)cc1)c1ccccn1 [compound 45] | 720 ± 18 | 0.24 | 1.2 | 0.24 | 1.2 | –
25 | O=C(NO)OCc1ccccc1 [compound 29, Benzyl N-hydroxycarbamate] | – | – | – | – | – | response in fluorescence in Notum OPTS assay (Notum [2]; at higher concentrations (>100 μM), likely assay interference): variable, supramaxial responses in fluoresence
26 | OCc1ccc(-n2cnc3ccccc32)cc1 [compound 4, [4-(1H-1,3-Benzimidazol-1-yl-)phenyl]methanol] | 54 ± 16 | 0.35 | 1.7 | 0.35 | 1.7 | –
27 | Cc1cccc2nc(NC#N)n(C)c12 [15l] | – | – | – | – | – | IC50 (Notum [2]): 2.2 ± 0.48 µM

Row | SMILES | IC50 (Notum [1]; [3]) [µM] | LE (ligand efficiency) (Notum [2]) | LLE (lipophilic ligand efficiency) (Notum [2]) | LE (Notum [2]) | LLE (Notum [2]) | further results
28 | FC(F)(F)c1cc(-c2cc[nH]n2)ccc1Cl [16a] | 1.4 ± 0.1 | – | – | – | – | fold improvement in Notum inhibition (Notum [2]): 2.3 fold
29 | O=S1(=O)CCN(Cc2ccco2)CC1 [compound 30] | > 1000 | – | – | – | – | IC50 (Notum [1]; [4]): > 1000 µM
30 | Cc1cccc2c1nc(NC#N)n2C [15k] | – | – | – | – | – | IC50 (Notum [2]): 9.3 ± 3.8 µM
31 | O=C(O)COc1ccc(N2C(=O)CCC2=O)cc1 [compound 39] | > 1000 | – | – | – | – | IC50 (Notum [1]; [4]): > 1000 µM
32 | Nc1ccccc1Nc1ccccn1 [compound 33] | 500 ± 64 | 0.33 | 1.6 | 0.33 | 1.6 | –
33 | O=C(O)Cc1ccc(-c2ccccc2)cc1 [compound 14, 2-[(1,1’-Biphenyl)-4-yl]acetic acid] | 58 ± 8.2 | 0.33 | 0.9 | 0.33 | 0.9 | –
34 | O=C(NCCc1ccncc1)NC1CCCCC1 [compound 9] | > 1000 | – | – | – | – | IC50 (Notum [1]; [4]): > 1000 µM
35 | COC(=O)COc1ccc(C#N)cc1 [compound 44] | 410 ± 63 | 0.34 | 2.0 | 0.34 | 2 | –
36 | NNC(=O)c1ccccc1OCc1ccccc1 [compound 34] | 330 ± 11 | 0.27 | 1.4 | 0.27 | 1.4 | –
37 | COc1ccc(-c2cc[nH]n2)c(O)c1 [compound 17] | 34 ± 5.7 | 0.51 | 2.9 | 0.51 | 2.9 | IC50 (Notum [1]; [5]): 31.6 µM
38 | N#CNc1nc2c(C(F)(F)F)cccc2[nH]1 [15e] | – | – | – | – | – | IC50 (Notum [2]): 12 ± 1.4 µM
39 | N#CNc1nc2cc(Cl)ccc2[nH]1 [15h] | – | – | – | – | – | IC50 (Notum [2]): 29 ± 16 µM
40 | N#CNc1nc2c(Cl)cccc2[nH]1 [15c] | – | – | – | – | – | IC50 (Notum [2]): 2.2 ± 0.31 µM
41 | OCc1cn(-c2ccc(Cl)c(C(F)(F)F)c2Cl)nn1 [7c] | – | – | – | – | – | fold improvement in Notum inhibition (Notum [2]): 7 fold
42 | N#CNc1nc2cc(C(F)(F)F)ccc2[nH]1 [15j] | – | – | – | – | – | IC50 (Notum [2]): 36 ± 5.7 µM
43 | Cl.Oc1c(CN2CCOCC2)ccc2ccccc12 [compound 37] | 58 ± 19 | 0.33 | 1.9 | 0.33 | 1.9 | –
44 | CC(=O)Nc1cccc2nonc12 [compound 2] | 140 ± 31 | 0.42 | 2.5 | 0.42 | 2.5 | –
45 | Cn1nc(O)cc1Nc1ccccc1 [compound 49] | 550 ± 93 | 0.33 | 1.8 | 0.33 | 1.8 | IC50 (Notum [1]; [5]): 631 µM
46 | NCc1cc(-c2ccccc2)no1 [compound 24] | 12 ± 3.2 | 0.53 | 3.7 | 0.53 | 3.7 | –
47 | c1ccc(CNCc2ccc3c(c2)OCO3)nc1 [compound 28, 1-(Benzo[d][1,3]dioxol-5-yl)-N-(pyridine-2-ylmethyl)methanamine] | 54 ± 6.2 | 0.33 | 3.2 | 0.33 | 3.2 | –
48 | CCNC(=O)Nc1cc(C)on1 [compound 1] | > 1000 | – | – | – | – | IC50 (Notum [1]; [4]): > 1000 µM
49 | Cc1ccc2[nH]c(NC#N)nc2c1C [15m] | – | – | – | – | – | IC50 (Notum [2]): 18 ± 5.1 µM
50 | Nc1nonc1N1CCCCC1 [compound 20] | 110 ± 21 | 0.46 | 2.7 | 0.46 | 2.7 | IC50 (Notum [1]; [5]): 126 µM
51 | Cc1ccc2[nH]c(NC#N)nc2c1 [15g] | – | – | – | – | – | IC50 (Notum [2]): 100 ± 4.4 µM
52 | CCOc1cccc(-c2nnc(N)s2)c1 [compound 22] | 93 ± 7 | 0.38 | 1.8 | 0.38 | 1.8 | IC50 (Notum [1]; [5]): 100 µM
53 | O=C(O)COCc1ccccc1 [compound 52] | > 1000 | – | – | – | – | IC50 (Notum [1]; IC50 (µM)): > 1000 µM
54 | CCOc1ccc(CC(=O)O)cc1 [compound 48] | > 1000 | – | – | – | – | IC50 (Notum [1]; [4]): > 1000 µM
